From the CheMixHub ionic liquid set

Assay: xn = mol fraction of the nth substance listed

CCCCC[N+](CCCCC)(CCCCC)CCCCC.[Br-] + CCCCCCCCCCCC[N+](C)(C)C.[Br-] + O
viscosity [mPa·s], 100 kPa
Details | x2 = 5.425e-05, x1 = 0.0001802 | x2 = 0.0001085, x1 = 0.0001801 | x2 = 0.0001627, x1 = 0.0001801 | x2 = 0.000217, x1 = 0.0001801 | x2 = 0.0002712, x1 = 0.0001801 | x2 = 0.0003254, x1 = 0.0001801 | x2 = 0.0003796, x1 = 0.0001801 | x2 = 0.0004339, x1 = 0.0001801 | x2 = 0.0004881, x1 = 0.0001801 | x2 = 0.0005422, x1 = 0.0001801
293.15 K | 1.057 | 1.059 | 1.06 | 1.061 | 1.062 | 1.062 | 1.063 | 1.063 | 1.063 | 1.064
298.15 K | 0.943 | 0.944 | 0.945 | 0.946 | 0.948 | 0.949 | 0.95 | 0.951 | 0.951 | 0.953
303.15 K | 0.825 | 0.826 | 0.826 | 0.827 | 0.827 | 0.827 | 0.828 | 0.828 | 0.828 | 0.829
308.15 K | 0.745 | 0.746 | 0.746 | 0.746 | 0.747 | 0.747 | 0.747 | 0.748 | 0.748 | 0.749
313.15 K | 0.679 | 0.68 | 0.681 | 0.681 | 0.682 | 0.682 | 0.682 | 0.682 | 0.683 | 0.683
318.15 K | 0.624 | 0.625 | 0.625 | 0.625 | 0.626 | 0.626 | 0.626 | 0.626 | 0.626 | 0.627

OCC(O)CO + CCCCCCCCCCCC[P+](CC)(CC)CC.N#Cc1ccc[n-]1
100 kPa, x2 = 0
Details | viscosity [mPa·s]
293.15 K | 1360
298.15 K | 860
303.15 K | 542
313.15 K | 217

II + CCCCCCCCCCCC[n+]1ccn(C)c1.[I-]
Details | electrical conductivity [S/m]
298 K, 101.3 kPa, x2 = 0.2 | 2.02

CCCCOC(C)=O + CCCCCCCCn1cc[n+](C)c1.F[B-](F)(F)F
Details | viscosity [mPa·s]
298.15 K, 101 kPa, x1 = 1 | 0.7

[Br-].[Li+] + CCCCCCCCn1cc[n+](C)c1.N#C[S-] + CN1CCCC1=O
298.15 K, 101 kPa
Details | viscosity [mPa·s]
x2 = 0, x1 = 0.02595 | 2.385
x2 = 0, x1 = 0.05088 | 3.13
x2 = 0, x1 = 0.07505 | 4.349

CCCCCCCC[n+]1ccc2ccccc2c1.O=S(=O)([N-]S(=O)(=O)C(F)(F)F)C(F)(F)F + CCCCCCO
101 kPa
Details | viscosity [mPa·s]
318.15 K, x2 = 0.2857 | 48.99
338.15 K, x2 = 0.6854 | 6.58

[Br-].[Li+] + CCCCCC[n+]1ccn(C)c1.N#C[S-] + CN1CCCC1=O
298.15 K, 101 kPa
Details | viscosity [mPa·s]
x2 = 0, x1 = 0.02735 | 2.37
x2 = 0, x1 = 0.05202 | 3.192
x2 = 0, x1 = 0.07626 | 4.329

CCCCCCCC[n+]1ccc2ccccc2c1.O=S(=O)([N-]S(=O)(=O)C(F)(F)F)C(F)(F)F + CCCCO
101 kPa
Details | viscosity [mPa·s]
298.15 K, x2 = 0.3134 | 122.9
298.15 K, x2 = 0.5032 | 55.19
308.15 K, x2 = 0.3134 | 71.3
308.15 K, x2 = 0.6915 | 15.21
318.15 K, x2 = 0.7937 | 6.33
328.15 K, x2 = 0.1708 | 45.14
338.15 K, x2 = 0.3134 | 21.01
338.15 K, x2 = 0.6915 | 5.91
338.15 K, x2 = 0.7937 | 3.66

CC(=O)CCC(=O)O + CCCC[N+](CCCC)(CCCC)CCCC.[Cl-]
Details | electrical conductivity [S/m] | viscosity [mPa·s]
293.15 K, 101.33 kPa, x2 = 0.3333 | – | 609
298.15 K, 101.33 kPa, x2 = 0.3333 | – | 405
303.15 K, 101.33 kPa, x2 = 0.3333 | – | 276
308.15 K, 101.33 kPa, x2 = 0.3333 | – | 195
313.15 K, 101.33 kPa, x2 = 0.3333 | – | 141
318.15 K, 101.33 kPa, x2 = 0.3333 | – | 105
323.15 K, 101.33 kPa, x2 = 0.3333 | – | 79
328.15 K, 101.33 kPa, x2 = 0.3333 | – | 61
333.15 K, 101 kPa, x1 = 0.75 | 0.177 | 17.47
333.15 K, 101.33 kPa, x2 = 0.3333 | – | 48
338.15 K, 101.33 kPa, x2 = 0.3333 | – | 39
343.15 K, 101 kPa, x1 = 0.75 | 0.238 | –
343.15 K, 101.33 kPa, x2 = 0.3333 | – | 32
348.15 K, 101.33 kPa, x2 = 0.3333 | – | 26
353.15 K, 101.33 kPa, x2 = 0.3333 | – | 22

O=C(O)CC(O)C(=O)O (centres undefined) + CCCC[N+](CCCC)(CCCC)CCCC.[Cl-] + O
100 kPa, x2 = 0.1428, x1 = 0.1428
Details | electrical conductivity [S/m] | viscosity [mPa·s]
293.15 K | 0.0722 | 283
303.15 K | 0.113 | 191
313.15 K | 0.173 | 133
323.15 K | 0.257 | 94
333.15 K | 0.373 | 68.1

NCCNCCN + CCCC[n+]1ccn(C)c1.F[B-](F)(F)F
101.3 kPa
Details | viscosity [mPa·s]
298.15 K, x2 = 0 | 5.52
298.15 K, x2 = 0.3995 | 23.66
298.15 K, x2 = 0.5905 | 40.1
303.15 K, x2 = 0.2998 | 14.59
303.15 K, x2 = 0.4992 | 26.4
303.15 K, x2 = 0.5905 | 33.6
303.15 K, x2 = 0.6974 | 44.2
303.15 K, x2 = 0.8948 | 69.1
308.15 K, x2 = 0.2998 | 12.47
313.15 K, x2 = 0.1986 | 7.86
313.15 K, x2 = 0.3995 | 14.5
313.15 K, x2 = 0.4992 | 19.06
313.15 K, x2 = 0.6974 | 30.9
318.15 K, x2 = 0.051 | 3.95
323.15 K, x2 = 0.2998 | 8.65
323.15 K, x2 = 0.3995 | 11.33
323.15 K, x2 = 0.5905 | 18.26
328.15 K, x2 = 0.2998 | 7.68
328.15 K, x2 = 0.3995 | 9.9
328.15 K, x2 = 0.4992 | 12.63
328.15 K, x2 = 0.6974 | 19.4
333.15 K, x2 = 0.1986 | 4.89
333.15 K, x2 = 0.2998 | 6.68
333.15 K, x2 = 0.4992 | 11.19
333.15 K, x2 = 0.6974 | 17.57
333.15 K, x2 = 0.9496 | 24.5

O=S(=O)([O-])C(F)(F)F.[Li+] + CCCC[n+]1ccn(C)c1.N#C[N-]C#N
electrical conductivity [S/m], 101 kPa
Details | x2 = 0.8612 | x2 = 0.8907 | x2 = 0.9197 | x2 = 0.9504 | x2 = 0.9799
288.15 K | 0.236 | – | 0.387 | 0.489 | 0.591
298.15 K | 0.399 | 0.521 | 0.625 | 0.776 | 0.91
333.15 K | 1.4 | 1.72 | 1.91 | 2.25 | 2.55

[Br-].[Li+] + CCCC[n+]1ccn(C)c1.N#C[S-] + CN1CCCC1=O
298.15 K, 101 kPa
Details | viscosity [mPa·s]
x2 = 0, x1 = 0.02626 | 2.359
x2 = 0, x1 = 0.05114 | 3.124
x2 = 0, x1 = 0.07535 | 4.344

CCCCOC(C)=O + CCCC[n+]1ccn(C)c1.O=S(=O)([N-]S(=O)(=O)C(F)(F)F)C(F)(F)F
Details | electrical conductivity, x1 = 0.8928 [S/m] | electrical conductivity, x1 = 0.9456 [S/m] | viscosity, x1 = 0.313 [mPa·s] | viscosity, x1 = 0.8928 [mPa·s] | viscosity, x1 = 0.9456 [mPa·s]
298.15 K, 100 kPa | 0.373 | 0.163 | – | 1.47 | 1.092
318.15 K, 100.7 kPa | – | – | 10 | – | –

N[C@@H](CO)C(=O)O + CCCC[n+]1ccn(C)c1.[Br-] + O
viscosity [mPa·s], 101.3 kPa
Details | x1 = 0.0003603, x2 = 0 | x1 = 0.0007203, x2 = 0 | x1 = 0.001078, x2 = 0 | x1 = 0.00144, x2 = 0 | x1 = 0.001781, x2 = 0 | x1 = 0.002158, x2 = 0 | x1 = 0.002516, x2 = 0
293.15 K | 1.007 | 1.012 | 1.018 | 1.023 | 1.028 | 1.033 | 1.039
298.15 K | 0.897 | 0.902 | 0.907 | 0.911 | 0.916 | 0.92 | 0.925
303.15 K | 0.804 | 0.809 | 0.813 | 0.818 | 0.822 | 0.827 | 0.831
308.15 K | 0.727 | 0.73 | 0.735 | 0.739 | 0.744 | 0.748 | 0.753
313.15 K | 0.661 | 0.664 | 0.668 | 0.673 | 0.677 | 0.682 | 0.686

Oc1cccnc1 + CCCC[n+]1ccn(C)c1.[Cl-]
Details | viscosity [mPa·s]
293.15 K, 100 kPa, x1 = 0.333 | 179.1

II + CCCC[n+]1ccn(C)c1.[I-]
Details | electrical conductivity [S/m]
298 K, 101.3 kPa, x2 = 0.333 | 3.07
